Format in all cases: in vivo
The test system of series [1] is postmenopausal or ovarectomized women. Put plainly: endometrial thickness by transvaginal ultrasound in clinical study. To be noted: 0.4 mg buccal tablet. The protocol:
Hot flashes were recorded before the beginning of treatment and on one of the last 3 days of treatment week 4. This was carried out according to subjective criteria (number and severity of the events) using patient diaries and objectively by continuous measurement of the skin temperature. In addition, the measurement of the endometrial thickness was carried out by transvaginal ultrasound investigations.

Series [2] has the same test system. The series can be described thus: double-blind, randomized crossover clinical study: hot flashes (patient diaries, skin temperature). Particulars: 0.4 mg buccal tablet. The procedure:
Hot flashes were recorded before the beginning of treatment and on one of the last 3 days of treatment week 4. This was carried out according to subjective criteria (number and severity of the events) using patient diaries and objectively by continuous measurement of the skin temperature.

The test system is the same in series [3]. The series can be described thus: tolerability: monitoring of undesired events and laboratory investigations in clinical study. Particulars: 0.4 mg buccal tablet, versus placebo group. The protocol: Hot flashes were recorded before the beginning of treatment and on one of the last 3 days of treatment week 4. This was carried out according to subjective criteria (number and severity of the events) using patient diaries and objectively by continuous measurement of the skin temperature. Moreover, the tolerability of the treatment regime was determined by monitoring of undesired events and standardized laboratory investigations.

SMILES strings stand for the structures.

Regarding `C[C@]12CC[C@@H]3c4ccc(O)cc4CC[C@H]3[C@@H]1CC[C@H]2O` [17α-estradiol], in series [1], the “endometrial thickness measured by transvaginal ultrasound” value is “not significantly altered”. Further, the “number of hot flashes per 24 h” value in series [2] (after treatment for 4 weeks, before treatment 11.9±2.1, patient diaries) was 3.1±1.8 per 24 h. Moreover, the “effect on number and intensity of hot flashes” value in series [2] (drug group versus placebo) is “rapid reduction of the number and intensity of hot flashes”. The side-effect profile entry in series [3] is “comparable”.

The record behind these values is patent US20120142656A1, “BUCCAL APPLICATION SYSTEM COMPRISING 17A-ESTRADIOL” (BAYER PHARMA AKTIENGESELLSCHAFT, priority 2009, published 2012).
